PMC10578354 (Journal of Medicinal Chemistry, 2023)

Test system: T24 and 5637 bladder cancer cell lines and healthy bladder epithelial cells (BdECs)
Assay: MTT proliferation assay
Format: cell-based
Settings: T24 and 5637 vs BdEC, 72 h treatment, Figure 6B

`CN(C)CCOc1cccc(NC(=O)Cc2c[nH]c3cc(F)ccc23)c1` [NMX-10095, N-(3-(2-(Dimethylamino)ethoxy)phenyl)-2-(6-fluoro-1H-indol-3-yl)acetamide] was tested. Which “inhibition of cell proliferation, cancer vs healthy cells” value did it give?
Its value is “differential inhibition of cell proliferation”.
